Test results reported in ChEMBL document CHEMBL1122924 (J Med Chem, 1985).

What was measured:
[1] = physchem; conditions: octanol/0.05 M phosphate buffer, pH 7.4
Description: Compound was evaluated for apparent partition coefficient (log P) between octanol and 0.05 M phosphate buffer solution of pH 7.40

[2] = physchem; conditions: pH 7.4

Row | Compound | logD [1] | half-life [2] [h]
1 | CC[C@H](C(=O)OCc1ccccc1C)[C@H](CO)Cc1cncn1C | 2.27 | 2.32
2 | CC[C@H](C(=O)OCc1ccccc1)[C@H](CO)Cc1cncn1C | 1.82 | 0.833
3 | CC[C@H](C(=O)OC(C)c1ccccc1)[C@H](CO)Cc1cncn1C (stereo partly drawn) | 2.08 | 7.92
4 | CC[C@H](C(=O)OCCc1ccccc1)[C@H](CO)Cc1cncn1C | 2.16 | 3.78
5 | CC[C@H](C(=O)OCc1ccc(Cl)cc1)[C@H](CO)Cc1cncn1C | 2.54 | 0.5

Next, values leading:

Row | logD [1] | half-life [2] [h] | Compound
6 | 1.58 | 13.7 | CCCCOC(=O)[C@@H](CC)[C@H](CO)Cc1cncn1C
7 | 0.58 | 8.5 | CCOC(=O)[C@@H](CC)[C@H](CO)Cc1cncn1C
8 | 2.56 | 18.4 | CCCCCCOC(=O)[C@@H](CC)[C@H](CO)Cc1cncn1C
9 | 2.31 | 1.28 | CC[C@H](C(=O)OCc1ccc(C)cc1)[C@H](CO)Cc1cncn1C
